{"source": "patent US10058550B2", "about": "“Methods of treating heart failure” (priority 2015, dated 2018)", "molecular_target": "human APJ receptor (Homo sapiens (Human), UniProt P35414)", "sequence (P35414 whole entry)": "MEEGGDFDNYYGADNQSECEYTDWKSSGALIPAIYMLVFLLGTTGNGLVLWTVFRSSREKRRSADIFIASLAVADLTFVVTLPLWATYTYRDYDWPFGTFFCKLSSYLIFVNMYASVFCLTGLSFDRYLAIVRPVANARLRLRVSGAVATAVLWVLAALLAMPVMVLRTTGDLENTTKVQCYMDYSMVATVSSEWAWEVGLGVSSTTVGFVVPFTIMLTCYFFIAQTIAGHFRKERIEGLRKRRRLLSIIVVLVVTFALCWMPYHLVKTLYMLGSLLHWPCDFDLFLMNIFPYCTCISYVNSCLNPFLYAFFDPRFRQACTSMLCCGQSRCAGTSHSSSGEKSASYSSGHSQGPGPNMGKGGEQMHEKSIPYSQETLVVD", "assay": "biochemical", "format": "biochemical", "conditions": "read-out: Activity hAPJ SPA EC50 IP", "summary_of_the_method": "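Membranes from CHO cells stably expressing cloned human APJ were incubated with WGA SPA beads in 20 mM HEPES pH 7.5, 5 mM MgCl2, 0.1% BSA, 200 mM NaCl and 3 μM GDP. Reaction started with 0.2 nM [35S]GTPγS ± ligands, 90 min at RT. EC50 obtained by non-linear regression as mean of independent experiments.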", "data": [{"smiles": "COc1cccc(OC)c1-n1c(NS(=O)(=O)[C@@H](C)[C@H](OC)C2CCC2)nnc1-c1cncc(C)c1", "note": "(single isomer, unassigned) [Example 719.0]", "values": [{"measurement": "EC50", "value": 44, "unit": "nM"}]}, {"smiles": "COc1cccc(-c2nnc(NS(=O)(=O)[C@@H](C)[C@@H](O)C3CC(F)(F)C3)n2-c2c(OC)cccc2OC)n1", "note": "(single isomer, unassigned) [Example 720.0]", "values": [{"measurement": "EC50", "value": 35, "unit": "nM"}]}, {"smiles": "COc1cccc(-c2nnc(NS(=O)(=O)[C@@H](C)[C@@H](O)C3CC(F)(F)C3)n2-c2c(OC)cccc2OC)n1", "note": "(single isomer, unassigned) [Example 722.0]", "values": [{"measurement": "EC50", "value": 1.7, "unit": "nM"}]}, {"smiles": "COc1cccc(-c2nnc(NS(=O)(=O)[C@@H](C)[C@@H](O)C3CC(F)(F)C3)n2-c2c(OC)cccc2OC)n1", "note": "(single isomer, unassigned) [Example 723.0]", "values": [{"measurement": "EC50", "value": 2.5, "unit": "nM"}]}, {"smiles": "COc1cccc(OC)c1-n1c(NS(=O)(=O)[C@@H](C)[C@H](OC)C2CC(C)(C)C2)nnc1-c1cncc(C)c1", "note": "(single isomer, unassigned) [Example 724.0]", "values": [{"measurement": "EC50", "value": 220, "unit": "nM"}]}, {"smiles": "COc1cccc(OC)c1-n1c(NS(=O)(=O)[C@@H](C)[C@H](OC)C2CC(C)(C)C2)nnc1-c1cncc(C)c1", "note": "(single isomer, unassigned) [Example 725.0]", "values": [{"measurement": "EC50", "value": 36, "unit": "nM"}]}, {"smiles": "COc1cccc(OC)c1-n1c(NS(=O)(=O)[C@@H](C)[C@H](OC)C2CC(C)(C)C2)nnc1-c1cncc(C)c1", "note": "(single isomer, unassigned) [Example 726.0]", "values": [{"measurement": "EC50", "value": 7.5, "unit": "nM"}]}, {"smiles": "COc1cccc(OC)c1-n1c(NS(=O)(=O)[C@@H](C)[C@H](OC)C2CC(C)(C)C2)nnc1-c1cncc(C)c1", "note": "(single isomer, unassigned) [Example 727.0]", "values": [{"measurement": "EC50", "value": 200, "unit": "nM"}]}, {"smiles": "COc1cccc(OC)c1-n1c(NS(=O)(=O)C[C@H](O)c2ncc(C)cn2)nnc1-c1cncc(C)c1", "note": "(single isomer, unassigned) [Example 729.0, (R)—N-(4-(2,6-dimethoxyphenyl)-5-(5-methylpyridin-3-yl)-4H-1,2,4-triazol-3-yl)-2-hydroxy-2-(5-methylpyrimidin-2-yl)ethanesulfonamide or (S)—N-(4-(2,6-dimethoxyphenyl)-5-(5-methylpyridin-3-yl)-4H-1,2,4-triazol-3-yl)-2-hydroxy-2-(5-methylpyrimidin-2-yl)ethanesulfonamide]", "values": [{"measurement": "EC50", "value": 1.5, "unit": "nM"}]}, {"smiles": "COc1cccc(OC)c1-n1c(NS(=O)(=O)[C@H](C)[C@@H](O)c2cn3ccccc3n2)nnc1-c1cccnc1", "note": "(single isomer, unassigned) [Example 735.0, (1S,2R)—N-(4-(2,6-dimethoxyphenyl)-5-(pyridin-3-yl)-4H-1,2,4-triazol-3-yl)-1-hydroxy-1-(imidazo[1,2-a]pyridin-2-yl)propane-2-sulfonamide or (1R,2S)—N-(4-(2,6-dimethoxyphenyl)-5-(pyridin-3-yl)-4H-1,2,4-triazol-3-yl)-1-hydroxy-1-(imidazo[1,2-a]pyridin-2-yl)propane-2-sulfonamide]", "values": [{"measurement": "EC50", "value": 0.48, "unit": "nM"}]}, {"smiles": "COc1cccc(OC)c1-n1c(NS(=O)(=O)[C@H](C)[C@@H](O)c2cn3ccccc3n2)nnc1-c1cccnc1", "note": "(single isomer, unassigned) [Example 736.0, (1S,2R)—N-(4-(2,6-dimethoxyphenyl)-5-(pyridin-3-yl)-4H-1,2,4-triazol-3-yl)-1-hydroxy-1-(imidazo[1,2-a]pyridin-2-yl)propane-2-sulfonamide or (1R,2S)—N-(4-(2,6-dimethoxyphenyl)-5-(pyridin-3-yl)-4H-1,2,4-triazol-3-yl)-1-hydroxy-1-(imidazo[1,2-a]pyridin-2-yl)propane-2-sulfonamide]", "values": [{"measurement": "EC50", "value": 19, "unit": "nM"}]}, {"smiles": "COc1cccc(-c2nnc(NS(=O)(=O)[C@@H](C)[C@H](OC)c3ncc(C)cn3)n2-c2c(O)ncnc2OC)n1", "note": "(single isomer, unassigned) [Example 739.0, (1R,2S,M)-N-(4-(4-hydroxy-6-methoxypyrimidin-5-yl)-5-(6-methoxypyridin-2-yl)-4H-1,2,4-triazol-3-yl)-1-methoxy-1-(5-methylpyrimidin-2-yl)propane-2-sulfonamide or (1R,2S,P)-N-(4-(4-hydroxy-6-methoxypyrimidin-5-yl)-5-(6-methoxypyridin-2-yl)-4H-1,2,4-triazol-3-yl)-1-methoxy-1-(5-methylpyrimidin-2-yl)propane-2-sulfonamide]", "values": [{"measurement": "EC50", "value": 1.5, "unit": "nM"}]}, {"smiles": "COc1cccc(-c2nnc(NS(=O)(=O)[C@@H](C)[C@H](OC)c3ncc(C)cn3)n2-c2c(O)ncnc2OC)n1", "note": "(single isomer, unassigned) [Example 740.0, (1R,2S,M)-N-(4-(4-hydroxy-6-methoxypyrimidin-5-yl)-5-(6-methoxypyridin-2-yl)-4H-1,2,4-triazol-3-yl)-1-methoxy-1-(5-methylpyrimidin-2-yl)propane-2-sulfonamide or (1R,2S,P)-N-(4-(4-hydroxy-6-methoxypyrimidin-5-yl)-5-(6-methoxypyridin-2-yl)-4H-1,2,4-triazol-3-yl)-1-methoxy-1-(5-methylpyrimidin-2-yl)propane-2-sulfonamide]", "values": [{"measurement": "EC50", "value": 56, "unit": "nM"}]}, {"smiles": "COc1cnc([C@@H](OC(C)C)[C@@H](C)S(=O)(=O)Nc2nnc(-c3cncc(C)c3)n2-c2c(OC)cccc2OC)cn1", "note": "(single isomer, unassigned) [Example 742.0, (1R,2R)-N-(4-(2,6-dimethoxyphenyl)-5-(5-methylpyridin-3-yl)-4H-1,2,4-triazol-3-yl)-1-isopropoxy-1-(5-methoxypyrazin-2-yl)propane-2-sulfonamide or (1S,2S)-N-(4-(2,6-dimethoxyphenyl)-5-(5-methylpyridin-3-yl)-4H-1,2,4-triazol-3-yl)-1-isopropoxy-1-(5-methoxypyrazin-2-yl)propane-2-sulfonamide]", "values": [{"measurement": "EC50", "value": 35, "unit": "nM"}]}, {"smiles": "COc1cccc(OC)c1-n1c(NS(=O)(=O)[C@H](C)[C@H](OC(C)C)c2ccc(Cl)cn2)nnc1-c1cncc(C)c1", "note": "(single isomer, unassigned) [Example 744.0, (1R,2R)-1-(5-chloropyridin-2-yl)-N-(4-(2,6-dimethoxyphenyl)-5-(5-methylpyridin-3-yl)-4H-1,2,4-triazol-3-yl)-1-isopropoxypropane-2-sulfonamide or (1S,2S)-1-(5-chloropyridin-2-yl)-N-(4-(2,6-dimethoxyphenyl)-5-(5-methylpyridin-3-yl)-4H-1,2,4-triazol-3-yl)-1-isopropoxypropane-2-sulfonamide]", "values": [{"measurement": "EC50", "value": 26, "unit": "nM"}]}, {"smiles": "COc1cccc(OC)c1-n1c(NS(=O)(=O)[C@H](C)[C@H](OC(C)C)c2ccc(Cl)cn2)nnc1-c1cncc(C)c1", "note": "(single isomer, unassigned) [Example 745.0, (1R,2R)-1-(5-chloropyridin-2-yl)-N-(4-(2,6-dimethoxyphenyl)-5-(5-methylpyridin-3-yl)-4H-1,2,4-triazol-3-yl)-1-isopropoxypropane-2-sulfonamide or (1S,2S)-1-(5-chloropyridin-2-yl)-N-(4-(2,6-dimethoxyphenyl)-5-(5-methylpyridin-3-yl)-4H-1,2,4-triazol-3-yl)-1-isopropoxypropane-2-sulfonamide]", "values": [{"measurement": "EC50", "value": 0.4, "unit": "nM"}]}, {"smiles": "COc1cccc(OC)c1-n1c(NS(=O)(=O)[C@H](C)[C@H](OC(C)C)c2cnc(C)cn2)nnc1-c1cncc(C)c1", "note": "(single isomer, unassigned) [Example 746.0, (1R,2R)-N-(4-(2,6-dimethoxyphenyl)-5-(5-methylpyridin-3-yl)-4H-1,2,4-triazol-3-yl)-1-isopropoxy-1-(5-methylpyrazin-2-yl)propane-2-sulfonamide or (1S,2S)-N-(4-(2,6-dimethoxyphenyl)-5-(5-methylpyridin-3-yl)-4H-1,2,4-triazol-3-yl)-1-isopropoxy-1-(5-methylpyrazin-2-yl)propane-2-sulfonamide]", "values": [{"measurement": "EC50", "value": 80, "unit": "nM"}]}, {"smiles": "COc1cccc(OC)c1-n1c(NS(=O)(=O)[C@H](C)[C@H](OC(C)C)c2cnc(C)cn2)nnc1-c1cncc(C)c1", "note": "(single isomer, unassigned) [Example 747.0, (1R,2R)-N-(4-(2,6-dimethoxyphenyl)-5-(5-methylpyridin-3-yl)-4H-1,2,4-triazol-3-yl)-1-isopropoxy-1-(5-methylpyrazin-2-yl)propane-2-sulfonamide or (1S,2S)-N-(4-(2,6-dimethoxyphenyl)-5-(5-methylpyridin-3-yl)-4H-1,2,4-triazol-3-yl)-1-isopropoxy-1-(5-methylpyrazin-2-yl)propane-2-sulfonamide]", "values": [{"measurement": "EC50", "value": 7.6, "unit": "nM"}]}, {"smiles": "COc1ncnc(OC)c1-n1c(NS(=O)(=O)[C@@H]2C[C@@H](OC)CN(c3ncc(F)cn3)C2)nnc1-c1cccnc1", "note": "(single isomer, unassigned) [Example 812.0, (3S,5S)—N-(4-(4,6-dimethoxy-5-pyrimidinyl)-5-(3-pyridinyl)-4H-1,2,4-triazol-3-yl)-1-(5-fluoro-2-pyrimidinyl)-5-methoxy-3-piperidinesulfonamide or (3R,5R)—N-(4-(4,6-dimethoxy-5-pyrimidinyl)-5-(3-pyridinyl)-4H-1,2,4-triazol-3-yl)-1-(5-fluoro-2-pyrimidinyl)-5-methoxy-3-piperidinesulfonamide]", "values": [{"measurement": "EC50", "value": 230, "unit": "nM"}]}, {"smiles": "Cc1cnc([C@@H](C)[C@H](C)S(=O)(=O)Nc2nnc(-c3cncc(C)c3)n2-c2c(F)cccc2F)nc1", "note": "(single isomer, unassigned) [Example 826.0]", "values": [{"measurement": "EC50", "value": 1.7, "unit": "nM"}]}, {"smiles": "COc1cccc(-c2nnc(NS(=O)(=O)[C@@H]3CCCN(c4ncc(Cl)cn4)C3)n2-c2c(OC)ncnc2OC)n1", "note": "(single isomer, unassigned) [Example 830.0]", "values": [{"measurement": "EC50", "value": 14, "unit": "nM"}]}, {"smiles": "COc1ncnc(OC)c1-n1c(NS(=O)(=O)[C@@H]2C[C@H](OC)CN(c3ncc(F)cn3)C2)nnc1-c1cccnc1", "note": "(stereo in doubt) [Example 813.0, (3S,5R)-N-(4-(4,6-dimethoxy-5-pyrimidinyl)-5-(3-pyridinyl)-4H-1,2,4-triazol-3-yl)-1-(5-fluoro-2-pyrimidinyl)-5-methoxy-3-piperidinesulfonamide, (3R,5S)-N-(4-(4,6-dimethoxy-5-pyrimidinyl)-5-(3-pyridinyl)-4H-1,2,4-triazol-3-yl)-1-(5-fluoro-2-pyrimidinyl)-5-methoxy-3-piperidinesulfonamide]", "values": [{"measurement": "EC50", "value": 140, "unit": "nM"}]}]}
